ChEMBL document CHEMBL5137008, “Recent advances of antitumor shikonin/alkannin derivatives: A comprehensive overview focusing on structural classification, synthetic approaches, and mechanisms of action” (Eur J Med Chem, 2022)

Legend:
[1] = test system: Ca9-22; assay: Cytotoxicity against human Ca9-22 cells assessed as reduction in cell viability incubated for 24 hrs by MTT assay; format: functional, cell-based; settings: Ca9-22, 24 h
[2] = test system: Ca9-22; assay: Cytotoxicity against human Ca9-22 cells assessed as reduction in cell viability incubated for 48 hrs by MTT assay; format: functional, cell-based; settings: Ca9-22, 48 h
[3] = test system: B16-F10; assay: Anticancer activity against mouse B16-F10 cells assessed as inhibition of cell proliferation incubated for 48 hrs by MTT assay; format: functional, cell-based; settings: B16-F10, 48 h
[4] = test system: MG-63; assay: Anticancer activity against human MG-63 cells assessed as inhibition of cell proliferation incubated for 48 hrs by MTT assay; format: functional, cell-based; settings: MG-63, 48 h
[5] = test system: A549; assay: Anticancer activity against human A549 cells assessed as inhibition of cell proliferation incubated for 48 hrs by MTT assay; format: functional, cell-based; settings: A549, 48 h
[6] = Inhibition of bovine brain tubulin polymerization preincubated with compound followed by GTP addition and measured after 20 mins by turbidimetry-based spectrophotometric method; parameters: species or system Bos taurus
[7] = test system: SW872; assay: Anticancer activity against human SW872 cells assessed as inhibition of cell growth incubated for 72 hrs by MTT assay; format: functional, cell-based; settings: SW872, 72 h
[8] = Anticancer activity against human A875 cells assessed as inhibition of cell growth incubated for 72 hrs by MTT assay; format: functional, cell-based; settings: A875, 72 h
[9] = test system: A549; assay: Anticancer activity against human A549 cells assessed as inhibition of cell growth incubated for 72 hrs by MTT assay; format: functional, cell-based; settings: A549, 72 h
[10] = test system: A549; assay: Antiproliferative activity against human A549 cells assessed as reduction in cell viability incubated for 24 hrs by MTT assay; format: functional, cell-based; settings: A549, 24 h
[11] = test system: HeLa; assay: Antiproliferative activity against human HeLa cells assessed as reduction in cell viability incubated for 24 hrs by MTT assay; format: functional, cell-based
[12] = test system: HepG2; assay: Antiproliferative activity against human HepG2 cells assessed as reduction in cell viability incubated for 24 hrs by MTT assay; format: functional, cell-based; settings: HepG2, 24 h
[13] = Anticancer activity against human A875 cells assessed as inhibition of cell growth incubated for 24 hrs by MTT assay; format: functional, cell-based; settings: A875, 24 h
[14] = test system: HepG2; assay: Anticancer activity against human HepG2 cells assessed as inhibition of cell growth incubated for 24 hrs by MTT assay; format: functional, cell-based; settings: HepG2, 24 h
[15] = Cytotoxicity against human L02 cells assessed as inhibition of cell growth incubated for 24 hrs by MTT assay; format: toxicity, cell-based
[16] = Antitubulin activity against bovine brain tubulin polymerization preincubated with compound followed by GTP addition by turbidimetry-based spectrophotometric method; parameters: species or system Bos taurus
[17] = Antiproliferative activity against human BGC cells assessed as inhibition of cell proliferation incubated for 20 hrs by MTT assay; format: functional, cell-based
[18] = test system: A549; assay: Antiproliferative activity against human A549 cells assessed as inhibition of cell proliferation incubated for 20 hrs by MTT assay; format: functional, cell-based; settings: A549, 20 h
[19] = test system: L02; assay: Antiproliferative activity against human L02 cells assessed as inhibition of cell proliferation incubated for 20 hrs by MTT assay; format: functional, cell-based; settings: L02, 20 h
[20] = test system: HepG2; assay: Antiproliferative activity against human HepG2 cells assessed as inhibition of cell proliferation incubated for 24 hrs by MTT assay; format: functional, cell-based; settings: HepG2, 24 h
[21] = test system: A549; assay: Antiproliferative activity against human A549 cells assessed as inhibition of cell proliferation incubated for 24 hrs by MTT assay; format: functional, cell-based; settings: A549, 24 h
[22] = test system: MCF7; assay: Antiproliferative activity against human MCF7 cells assessed as inhibition of cell proliferation incubated for 24 hrs by MTT assay; format: functional, cell-based; settings: MCF7, 24 h
[23] = test system: SCC-4; assay: Antiproliferative activity against human SCC-4 cells assessed as inhibition of cell proliferation incubated for 24 hrs by MTT assay; format: functional, cell-based; settings: SCC-4, 24 h
[24] = Cytotoxicity against African green monkey VERO cells assessed as inhibition of cell growth incubated for 24 hrs by MTT assay; format: toxicity, cell-based, Chlorocebus sabaeus
[25] = test system: MCF7; assay: Antiproliferative activity against human MCF7 cells assessed as inhibition of cell growth incubated for 24 hrs in presence of foetal bovine serum by MTT assay; format: functional, cell-based; settings: MCF7, 24 h
[26] = test system: MDA-MB-468; assay: Antiproliferative activity against human MDA-MB-468 cells assessed as inhibition of cell growth incubated for 24 hrs in presence of foetal bovine serum by MTT assay; format: functional, cell-based; settings: MDA-MB-468, 24 h
[27] = Cytotoxicity against human L02 cells assessed as inhibition of cell growth incubated for 24 hrs in presence of foetal bovine serum by MTT assay; format: toxicity, cell-based
[28] = Cytotoxicity against human HEK293T cells assessed as inhibition of cell growth incubated for 24 hrs in presence of foetal bovine serum by MTT assay; format: toxicity, cell-based, HEK-293T
[29] = test system: BT-474; assay: Antiproliferative activity against human BT-474 cells assessed as inhibition of cell growth incubated for 24 hrs in presence of foetal bovine serum by MTT assay; format: functional, cell-based; settings: BT-474, 24 h
[30] = test system: MDA-MB-436; assay: Antiproliferative activity against human MDA-MB-436 cells assessed as inhibition of cell growth incubated for 24 hrs in presence of foetal bovine serum by MTT assay; format: functional, cell-based; settings: MDA-MB-436, 24 h
[31] = test system: HeLa; assay: Antiproliferative activity against human HeLa cells assessed as inhibition of cell growth incubated for 24 hrs by MTT assay; format: functional, cell-based
[32] = test system: MDA-MB-231; assay: Antiproliferative activity against human MDA-MB-231 cells assessed as inhibition of cell growth incubated for 24 hrs by MTT assay; format: functional, cell-based; settings: MDA-MB-231, 24 h
[33] = test system: A549; assay: Antiproliferative activity against human A549 cells assessed as inhibition of cell growth incubated for 24 hrs by MTT assay; format: functional, cell-based; settings: A549, 24 h
[34] = test system: A549; assay: Antiproliferative activity against human A549 cells assessed as inhibition of cell proliferation incubated for 24 hrs by CCK-8 assay; format: functional, cell-based; settings: A549, 24 h
[35] = test system: HCT-8; assay: Antiproliferative activity against human HCT-8 cells assessed as inhibition of cell proliferation incubated for 24 hrs by CCK-8 assay; format: functional, cell-based; settings: HCT-8, 24 h
[36] = test system: HeLa; assay: Antiproliferative activity against human HeLa cells assessed as inhibition of cell proliferation incubated for 24 hrs by CCK-8 assay; format: functional, cell-based
[37] = test system: MG-63; assay: Antiproliferative activity against human MG-63 cells incubated for 24 hrs by MTT assay; format: functional, cell-based; settings: MG-63, 24 h
[38] = test system: B16-F10; assay: Antiproliferative activity against mouse B16-F10 cells incubated for 24 hrs by MTT assay; format: functional, cell-based; settings: B16-F10, 24 h
[39] = test system: MDA-MB-231; assay: Antiproliferative activity against human MDA-MB-231 cells incubated for 24 hrs by MTT assay; format: functional, cell-based; settings: MDA-MB-231, 24 h
[40] = Cytotoxicity against human L02 incubated for 24 hrs by MTT assay; format: toxicity, cell-based; settings: L02 cells
[41] = Cytotoxicity against African green monkey Vero cells incubated for 24 hrs by MTT assay; format: toxicity, cell-based, Chlorocebus sabaeus
[42] = Cytotoxicity against human MCF-10A incubated for 24 hrs by MTT assay; format: toxicity, cell-based; settings: MCF-10A cells
[43] = Cytotoxicity against human skin fibroblast cells assessed as reduction in cell viability incubated for 72 hrs by MTT assay; format: toxicity, cell-based
[44] = test system: HCT-15; assay: Anticancer activity against human HCT-15 cells incubated for 72 hrs by MTT assay; format: functional, cell-based; settings: HCT-15, 72 h
[45] = test system: MCF7; assay: Anticancer activity against human MCF7 cells incubated for 72 hrs by MTT assay; format: functional, cell-based; settings: MCF7, 72 h
[46] = test system: SK-BR-3; assay: Antiproliferative activity against human SK-BR-3 cells assessed as inhibition of cell growth incubated for 24 hrs in presence of foetal bovine serum by MTT assay; format: functional, cell-based; settings: SK-BR-3, 24 h

`CC(C)=CC[C@@H](O)C1=CC(=O)c2c(O)ccc(O)c2C1=O` [SHIKONIN] gave an IC50 [1] of 13.6 µM, an IC50 [2] of 12.8 µM and an IC50 [3] of 3.72 µM. It also gave an IC50 [4] of 5.67 µM, an IC50 [5] of 5.06 µM and an IC50 [6] of 30.2 µM. For the same compound, the IC50 [7] was 0.76 µM, the IC50 [8] was 0.58 µM and the IC50 [9] was 1.8 µM. The IC50 [10] was 1.71 µM, the IC50 [11] was 2.82 µM and the IC50 [12] was 1.29 µM. The IC50 [13] was 0.46 µM, the IC50 [14] was 0.42 µM and the IC50 at 24 h [15] was 3.26 µM. It also gave an IC50 [16] of 16.8 µM, an IC50 [17] of 2.2 µM and an IC50 [18] of 2.51 µM. For the same compound, the IC50 [19] was 65.3 µM, the IC50 [20] was 9.36 µM and the IC50 [21] was 3.13 µM. The IC50 [22] was 4.99 µM, the IC50 [23] was 10.1 µM and the IC50 at 24 h [24] was 6.76 µM. The IC50 [25] was 4.57 µM, the IC50 [26] was 3.28 µM and the IC50 at 24 h [27] was 10.5 µM. It also gave an IC50 at 24 h [28] of 9.27 µM, an IC50 [29] of 5.74 µM and an IC50 [30] of 3.61 µM. It also gave an IC50 [31] of 6.5 µM, an IC50 [32] of 8.98 µM and an IC50 [33] of 10.4 µM. The IC50 [34] was 7.73 µM, the IC50 [35] was 9.2 µM and the IC50 [36] was 11.1 µM. The IC50 [37] was 7.36 µM, the IC50 [38] was 17.9 µM and the IC50 [39] was 108 µM. For the same compound, the IC50 at 24 h [40] was 83.8 µM, the IC50 at 24 h [41] was 6.76 µM and the IC50 at 24 h [42] was 93.4 µM. For the same compound, the IC50 at 72 h [43] was 1.2 µM, the IC50 [44] was 0.94 µM and the IC50 [45] was 2.11 µM. For the same compound, the IC50 [46] was 3.75 µM.
